Results published in patent US8217001B2, “Modification of feeding behavior” (Imperial Innovations Limited, priority 2001, dated 2012).
Like-named read-outs stand apart in the source and are kept apart here.

Key:
[1] = tested on: GABAergic IPSCs onto POMC neurons; experiment: GABAergic inhibitory postsynaptic currents (IPSCs) recorded in POMC neurons of hypothalamic slices; format: cell-based, mouse
POMC neurons = experiment: Whole cell recordings of membrane potential, currents and action potentials in EGFP-labeled POMC neurons of hypothalamic (ARC) slices; format: cell-based, mouse
[2] = Food intake after injection into the arcuate nucleus of fasted rats; format: in vivo, rat; details: rats fasted 24 hours
Description: (§1) Arcuate and paraventricular nuclei cannulations and injections were performed as previously described (Glaum et al., Mol. Pharmacol. 50, 230-5, 1996; Lee et al., J. Physiol (Lond) 515, 439-52; 1999; Shiraishi et al., Nutrition 15, 576-9, 1999). Correct intranuclear cannula placement was confirmed histologically at the end of each study period (Glaum et al., Mol. Pharmacol. 50, 230-5, 1996; Lee et al., J. Physiol (Lond) 515, 439-52, 1999; Shiraishi et al., Nutrition 15, 576-9, 1999). All animal procedures were approved under the British Home Office Animals (Scientific Procedures) Act, 1986. All injection studies on fasting animals were performed in the early light-phase (0800-0900). All dark-phase feeding studies injections were performed just prior to lights off.

[3] = Food intake after injection into the paraventricular nucleus (PVN) of fasted rats; format: in vivo, rat
Description: as §1, with “Animals: Male Wistar rats (200-250 g), 7-8 weeks old (Charles River Laboratories, United Kingdom) were maintained under controlled temperature (21-23° C.) and light conditions (lights on 07:00-19:00) with ad libitum access to water and food (RM1 diet; SDS Ltd., Witham, United Kingdom) except where stated. Arcuate” for “Arcuate”

[4] = tested on: NPY and α-MSH release from hypothalamic explants; experiment: Neuropeptide release from hypothalamic explants (RIA); format: cell-based, rat; details: 50 nM
Description: Hypothalamic explants: Male Wistar rats were killed by decapitation and the whole brain immediately removed, mounted with the ventral surface uppermost and placed in a vibrating microtome (Biorad, Microfield Scientific Ltd., Devon, UK). A 1.7 mm slice was taken from the base of the brain to include the PVN and the ARC and immediately transferred to 1 ml of artificial CSF (aCSF) (Kim et al., J. Clin. Invest. 105, 1005-11, 2000) equilibrated with 95% O2 and 5% CO2 and maintained at 37° C. After an initial 2-hour equilibration period, with aCSF replaced every 60 minutes, the hypothalami were then incubated for 45 minutes in 600 μl aCSF (basal period) before being exposed to the Y2A […] in 600 μl aCSF. Finally, the viability of the tissue was verified by a 45 minute exposure to 56 mM KCL; isotonicity was maintained by substituting K^+ for Na^+.

NPY Y2 receptor = target: T1, NPY Y2 receptor (Homo sapiens, UniProt P49146); experiment: Receptor-binding studies on cell lines expressing NPY Y2 receptor
T1 construct: host or cells: unnamed cell line expressing the receptor
T1 sequence (P49146 1-381): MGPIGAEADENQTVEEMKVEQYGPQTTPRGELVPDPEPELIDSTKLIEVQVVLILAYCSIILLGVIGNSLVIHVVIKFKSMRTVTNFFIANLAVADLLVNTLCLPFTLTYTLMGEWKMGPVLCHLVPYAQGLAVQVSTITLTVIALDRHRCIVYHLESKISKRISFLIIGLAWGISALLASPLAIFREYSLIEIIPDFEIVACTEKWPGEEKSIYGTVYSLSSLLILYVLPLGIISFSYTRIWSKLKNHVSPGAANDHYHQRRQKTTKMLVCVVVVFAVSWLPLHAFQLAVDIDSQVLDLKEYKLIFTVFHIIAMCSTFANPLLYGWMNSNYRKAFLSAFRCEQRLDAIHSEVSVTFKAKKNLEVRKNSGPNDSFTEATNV

NPY Y1 receptor = NPY Y1 receptor (Homo sapiens, UniProt P25929); experiment: biochemical; format: binding
NPY Y5 receptor = target: T2, NPY Y5 receptor (Homo sapiens, UniProt Q15761); experiment: Receptor-binding studies on cell lines expressing NPY Y5 receptor
T2 construct: host or cells: unnamed cell line expressing the receptor
T2 sequence (Q15761 1-445): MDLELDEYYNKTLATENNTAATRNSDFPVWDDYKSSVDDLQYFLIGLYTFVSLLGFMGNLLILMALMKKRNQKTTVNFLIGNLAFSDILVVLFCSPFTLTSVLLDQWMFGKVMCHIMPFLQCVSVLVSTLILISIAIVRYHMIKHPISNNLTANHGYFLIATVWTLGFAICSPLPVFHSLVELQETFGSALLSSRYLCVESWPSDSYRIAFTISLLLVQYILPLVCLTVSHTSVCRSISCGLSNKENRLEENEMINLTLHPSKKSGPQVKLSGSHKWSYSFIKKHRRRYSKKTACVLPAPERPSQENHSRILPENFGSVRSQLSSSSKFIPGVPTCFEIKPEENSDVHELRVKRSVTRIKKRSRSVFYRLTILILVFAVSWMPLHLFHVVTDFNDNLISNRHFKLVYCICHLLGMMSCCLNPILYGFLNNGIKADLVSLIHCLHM

[5] = tested on: non-POMC neurons in the arcuate nucleus; experiment: Recordings from non-fluorescent (non-POMC) neurons in the arcuate nucleus; format: cell-based, mouse; details: 13 cells tested; hyperpolarized 5, depolarized 3

NPY Y1 receptor, sequence (P25929 whole entry): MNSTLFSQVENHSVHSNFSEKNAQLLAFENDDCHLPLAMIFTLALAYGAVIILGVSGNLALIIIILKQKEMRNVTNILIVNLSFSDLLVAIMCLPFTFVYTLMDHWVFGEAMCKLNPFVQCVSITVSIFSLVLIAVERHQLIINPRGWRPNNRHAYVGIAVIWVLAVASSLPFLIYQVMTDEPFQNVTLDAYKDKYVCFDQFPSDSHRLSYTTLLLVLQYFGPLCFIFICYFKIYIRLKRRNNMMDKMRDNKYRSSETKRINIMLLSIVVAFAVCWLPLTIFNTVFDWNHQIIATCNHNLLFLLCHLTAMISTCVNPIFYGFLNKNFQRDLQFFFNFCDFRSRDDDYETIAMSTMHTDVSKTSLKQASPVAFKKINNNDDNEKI

NC1=N[C@H](O)[C@H]2[C@H]3O[C@]4(O)O[C@@H]([C@@H](O)[C@@]2(N1)[C@@H]4O)[C@]3(O)CO [TTX, tetrodotoxin]
effect on large amplitude IPSCs [1]: abolished large IPSCs

picrotoxin
effect on IPSCs ([1]; 100 μM): blocked all IPSCs

met-enkephalin
spontaneous action potential generation (POMC neurons; 30 μM): prevented spontaneous action potential generation | time to hyperpolarization (rapid) (POMC neurons; 30 μM): 35 to 40 s | reversal-potential of the inwardly-rectifying opioid current (POMC neurons; 6.5 mM K+ Krebs, n=3): approximately −60 mV

CTAP
effect on the current induced by Met-Enk in POMC cells (POMC neurons): completely prevented the current induced by Met-Enk

Ac-LRHYLNLLTRQRY-NH2 (C-terminus assumed) [Y2A, N-acetyl (Leu^28, Leu^31) NPY (24-36)]
depolarization of POMC neurons (POMC neurons; whole cell, PYY3-36 n=22, Y2A n=9): 8.7±1.8 mV | reduction of frequency of IPSCs onto POMC neurons [1]: 44.4±9.3% | food intake after intra-arcuate injection, dose dependence ([2]; 100 fmol-1 nmol): inhibited food intake | chow ingested 2 hours post-injection ([2]; intra-arcuate, 0.1 μmol, n=8): 6.2 ± 0.5 g | food intake after PVN injection ([3]; 100 fmol-1 nmol, rats fasted 24 hours): no alteration of food intake | food intake 2 hour post-injection ([3]; PVN, 0.1 nmol, n=8): 8.0 ± 0.6 g | α-MSH release from hypothalamic explants ([4]; 45 minutes (FIG. 8e)): concomitant increase in α-MSH release | NPY release from hypothalamic explants ([4]; 45 minutes (FIG. 8d)): significantly decreased NPY release

NPY
IPSCs in the presence of tetrodotoxin (TTX) [1]: still inhibited IPSCs | decrease of frequency of GABAergic IPSCs [1]: 55% | time to decrease of IPSC frequency ([1]; 100 nM): ≤ 3 min

D-Trp^8-γMSH
frequency of action potentials (POMC neurons; 7 nM): decreased the frequency of action potentials

Ac-LRHYLNLLTRQRY-NH2 [Y2A, N-acetyl (Leu^28, Leu^31) NPY (24-36)]
IC50 (NPY Y2 receptor): 1.3 ± 0.2 nM | IC50 (NPY Y1 receptor): > 5000 nM | IC50 (NPY Y5 receptor): > 5000 nM

B1: leptin: leptin applied to identified POMC cells in slice preparations (protein, UniProt P41160 22-167, looked up)
Leptin: VPIQKVQDDTKTLIKTIVTRINDISHTQSVSAKQRVTGLDFIPGLHPILSLSKMDQTLAVYQQVLTSLPSQNVLQIANDLENLRDLLHLLAFSKSCSLPQTSGLQKPESLDGVLEASLYSTEVVALSRLQGSLQDILQQLDVSPEC
reversal of the small inward current (POMC neurons; 100 nM): approximately −20 mV | mean±SEM depolarization (POMC neurons; 100 nM, n=45): 9.7±1.2 mV | time to depolarization (POMC neurons; 0.1-100 nM): 2 to 10 min | depolarization of POMC cells (POMC neurons; 0.1-100 nM, 72 of 77 cells): 3-30 mV | EC50 (POMC neurons; read-out: EC50 of concentration dependent depolarization of POMC cells): 5.9 nM | IPSCs in the presence of tetrodotoxin (TTX) [1]: still inhibited IPSCs | decrease of frequency of GABAergic IPSCs ([1]; 100 nM (leptin: 5 out of 15 cells; NPY: all 12 cells)): 25% | effect on adjacent non-fluorescent ARC cells [5]: no effect on 5 of 13 adjacent non-fluorescent cells tested
